Source: publication PMC8213057, “Targeting ALK2: An Open Science Approach to Developing Therapeutics for the Treatment of Diffuse Intrinsic Pontine Glioma” (Journal of Medicinal Chemistry, 2020)

Tests used:
[1] = target: T1, DMPK (Homo sapiens, UniProt Q09013); settings: 1 μM; Run 1, Run 2
T1 sequence (Q09013 1-629): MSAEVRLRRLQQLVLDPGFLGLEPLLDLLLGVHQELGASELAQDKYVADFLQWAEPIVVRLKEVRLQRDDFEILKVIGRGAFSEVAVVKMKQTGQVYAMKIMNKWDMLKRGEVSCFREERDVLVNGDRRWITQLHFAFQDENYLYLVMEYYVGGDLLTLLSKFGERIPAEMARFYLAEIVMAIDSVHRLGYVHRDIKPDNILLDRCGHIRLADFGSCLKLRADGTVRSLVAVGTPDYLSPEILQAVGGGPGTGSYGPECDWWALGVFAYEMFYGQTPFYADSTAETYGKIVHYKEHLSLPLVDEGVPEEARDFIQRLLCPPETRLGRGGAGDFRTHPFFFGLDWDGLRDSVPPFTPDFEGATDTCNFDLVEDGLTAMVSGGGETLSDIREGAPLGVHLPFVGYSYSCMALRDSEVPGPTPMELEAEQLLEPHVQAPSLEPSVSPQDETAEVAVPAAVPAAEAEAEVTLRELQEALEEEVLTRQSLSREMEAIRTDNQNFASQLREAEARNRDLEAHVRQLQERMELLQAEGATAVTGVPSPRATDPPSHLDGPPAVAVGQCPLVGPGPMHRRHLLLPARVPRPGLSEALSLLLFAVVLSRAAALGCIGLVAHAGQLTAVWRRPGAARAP

[2] = target: T2, EPHB2 (Homo sapiens, UniProt P29323); settings: 1 μM; Run 1, Run 2
T2 sequence (P29323 19-1055): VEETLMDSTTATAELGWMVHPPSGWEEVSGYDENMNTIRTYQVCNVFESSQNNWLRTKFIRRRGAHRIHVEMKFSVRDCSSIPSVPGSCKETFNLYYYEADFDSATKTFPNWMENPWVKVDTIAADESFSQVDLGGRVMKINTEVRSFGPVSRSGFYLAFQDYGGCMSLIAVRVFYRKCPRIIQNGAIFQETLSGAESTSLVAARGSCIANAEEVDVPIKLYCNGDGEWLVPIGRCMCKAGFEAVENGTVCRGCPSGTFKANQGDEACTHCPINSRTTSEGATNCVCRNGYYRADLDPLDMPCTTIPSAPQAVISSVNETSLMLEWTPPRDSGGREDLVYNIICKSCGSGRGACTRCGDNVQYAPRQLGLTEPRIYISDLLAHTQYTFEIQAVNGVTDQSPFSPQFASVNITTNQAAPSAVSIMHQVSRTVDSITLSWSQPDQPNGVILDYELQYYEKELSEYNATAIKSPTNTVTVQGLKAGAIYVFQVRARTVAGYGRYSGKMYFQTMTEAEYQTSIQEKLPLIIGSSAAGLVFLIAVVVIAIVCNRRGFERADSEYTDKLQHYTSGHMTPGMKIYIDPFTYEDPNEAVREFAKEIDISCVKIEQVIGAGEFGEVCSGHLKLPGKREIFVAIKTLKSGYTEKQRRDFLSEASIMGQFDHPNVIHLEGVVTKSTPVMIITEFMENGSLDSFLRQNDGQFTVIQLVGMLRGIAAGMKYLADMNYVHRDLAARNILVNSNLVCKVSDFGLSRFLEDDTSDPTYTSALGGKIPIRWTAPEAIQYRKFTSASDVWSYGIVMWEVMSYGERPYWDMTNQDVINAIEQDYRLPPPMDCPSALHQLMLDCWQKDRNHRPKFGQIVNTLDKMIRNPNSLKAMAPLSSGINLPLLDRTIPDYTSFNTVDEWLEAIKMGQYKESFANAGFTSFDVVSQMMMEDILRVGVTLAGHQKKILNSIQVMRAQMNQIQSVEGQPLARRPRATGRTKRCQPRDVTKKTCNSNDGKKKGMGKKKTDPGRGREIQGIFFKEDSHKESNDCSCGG

[3] = target: FAK/PTK2 (Homo sapiens, UniProt Q05397); settings: 1 μM; Run 1, Run 2
[4] = target: PKCa (Homo sapiens, UniProt P17252); settings: 1 μM; Run 1, Run 2
[5] = target: T3, IKKe/IKBKE (Homo sapiens, UniProt Q14164); test: biochemical; settings: read-out: % enzyme activity, 1 μM; Run 1, Run 2
T3 sequence (Q14164 1-716): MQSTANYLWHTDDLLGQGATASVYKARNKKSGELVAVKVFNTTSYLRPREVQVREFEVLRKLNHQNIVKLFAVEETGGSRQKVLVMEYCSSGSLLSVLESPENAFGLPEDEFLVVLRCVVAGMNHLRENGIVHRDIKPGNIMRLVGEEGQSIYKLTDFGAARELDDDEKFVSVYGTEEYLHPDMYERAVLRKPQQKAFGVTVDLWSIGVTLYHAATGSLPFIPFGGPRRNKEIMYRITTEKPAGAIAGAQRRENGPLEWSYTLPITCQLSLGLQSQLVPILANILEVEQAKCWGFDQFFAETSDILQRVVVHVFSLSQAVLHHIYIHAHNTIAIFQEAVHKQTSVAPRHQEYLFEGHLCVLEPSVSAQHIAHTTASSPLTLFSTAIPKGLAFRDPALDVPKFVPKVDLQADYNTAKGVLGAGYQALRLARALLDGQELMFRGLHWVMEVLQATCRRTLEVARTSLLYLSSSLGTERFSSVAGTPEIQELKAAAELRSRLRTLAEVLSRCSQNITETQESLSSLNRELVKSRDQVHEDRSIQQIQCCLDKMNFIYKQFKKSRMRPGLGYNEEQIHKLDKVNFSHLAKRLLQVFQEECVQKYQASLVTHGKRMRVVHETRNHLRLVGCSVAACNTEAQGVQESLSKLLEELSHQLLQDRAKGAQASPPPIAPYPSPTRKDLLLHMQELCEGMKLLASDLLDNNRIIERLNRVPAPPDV

[6] = target: T4, MEK5 (Homo sapiens, UniProt Q13163); test: biochemical; settings: read-out: % enzyme activity, 1 μM; Run 1, Run 2
T4 sequence (Q13163 1-448): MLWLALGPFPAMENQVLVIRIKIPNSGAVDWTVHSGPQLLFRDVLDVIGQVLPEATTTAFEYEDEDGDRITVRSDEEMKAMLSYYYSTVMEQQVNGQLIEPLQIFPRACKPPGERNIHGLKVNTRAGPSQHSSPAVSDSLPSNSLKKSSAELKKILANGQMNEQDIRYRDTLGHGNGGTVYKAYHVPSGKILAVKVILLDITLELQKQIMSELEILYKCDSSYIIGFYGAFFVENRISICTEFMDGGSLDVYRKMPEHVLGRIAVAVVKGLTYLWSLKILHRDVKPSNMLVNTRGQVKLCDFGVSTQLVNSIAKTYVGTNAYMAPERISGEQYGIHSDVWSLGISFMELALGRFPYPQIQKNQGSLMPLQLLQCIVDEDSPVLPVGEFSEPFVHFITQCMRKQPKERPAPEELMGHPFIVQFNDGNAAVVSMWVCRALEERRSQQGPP

Chain of FAK/PTK2 (Q05397 whole entry): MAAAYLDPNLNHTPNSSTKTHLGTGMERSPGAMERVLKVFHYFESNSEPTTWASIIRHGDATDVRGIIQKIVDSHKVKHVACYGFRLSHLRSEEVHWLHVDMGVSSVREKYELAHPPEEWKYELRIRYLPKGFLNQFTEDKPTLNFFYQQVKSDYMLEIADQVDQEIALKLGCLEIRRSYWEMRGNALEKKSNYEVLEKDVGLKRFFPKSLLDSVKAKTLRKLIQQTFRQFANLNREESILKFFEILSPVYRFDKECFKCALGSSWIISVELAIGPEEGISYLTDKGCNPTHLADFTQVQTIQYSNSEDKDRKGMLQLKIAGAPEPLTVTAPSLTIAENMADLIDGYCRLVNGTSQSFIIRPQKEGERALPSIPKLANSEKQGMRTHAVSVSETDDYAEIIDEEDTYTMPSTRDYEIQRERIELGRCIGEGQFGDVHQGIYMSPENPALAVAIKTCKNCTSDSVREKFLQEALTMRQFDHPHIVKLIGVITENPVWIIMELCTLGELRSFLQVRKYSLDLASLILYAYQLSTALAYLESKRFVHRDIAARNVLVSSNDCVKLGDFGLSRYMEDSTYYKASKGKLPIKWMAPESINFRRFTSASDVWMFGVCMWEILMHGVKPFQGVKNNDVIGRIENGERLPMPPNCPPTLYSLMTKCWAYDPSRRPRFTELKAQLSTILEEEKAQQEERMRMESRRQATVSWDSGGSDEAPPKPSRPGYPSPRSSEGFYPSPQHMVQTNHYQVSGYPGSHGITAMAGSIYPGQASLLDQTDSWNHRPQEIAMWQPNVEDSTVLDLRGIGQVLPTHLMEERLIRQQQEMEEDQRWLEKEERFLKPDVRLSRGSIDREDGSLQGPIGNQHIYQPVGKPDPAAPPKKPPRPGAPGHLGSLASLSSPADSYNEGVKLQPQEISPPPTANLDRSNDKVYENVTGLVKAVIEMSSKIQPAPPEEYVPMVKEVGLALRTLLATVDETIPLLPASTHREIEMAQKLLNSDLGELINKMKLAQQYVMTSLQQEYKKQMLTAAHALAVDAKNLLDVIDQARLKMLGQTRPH

COc1cc(-c2cncc(-c3ccc(N4CCN(C)CC4)cc3)c2C)cc(F)c1C(N)=O [Compound 26a, 2-Fluoro-6-methoxy-4-(4-methyl-5-(4-(4-methylpiperazin-1-yl)phenyl)pyridin-3-yl)benzamide]
% enzyme activity [1]: 108.75%
% enzyme activity [2]: 92.89%
% enzyme activity [3]: 94.56%
% enzyme activity [4]: 89.62%
remaining activity at 1 µM [5]: 91.1%
remaining activity at 1 µM [6]: 86.9%

COc1cc(-c2cncc(-c3ccc(N4C[C@@H](C)N(C)[C@@H](C)C4)cc3)c2C)cc(F)c1C(N)=O [Compound 26c, 2-Fluoro-6-methoxy-4-(4-methyl-5-(4-((3R,5S)-3,4,5-trimethylpiperazin-1-yl)phenyl)pyridin-3-yl)benzamide]
% enzyme activity [1]: 99.12%
% enzyme activity [2]: 97.40%
% enzyme activity [3]: 97.12%
% enzyme activity [4]: 89.76%
remaining activity at 1 µM [5]: 96.7%
remaining activity at 1 µM [6]: 93.2%
